Where a name gives a salt, the structure may show the parent alone. Some results are limits rather than exact numbers.

Chain of Full length human CDC7 protein co-expressed with DBF4 (O00311 whole entry): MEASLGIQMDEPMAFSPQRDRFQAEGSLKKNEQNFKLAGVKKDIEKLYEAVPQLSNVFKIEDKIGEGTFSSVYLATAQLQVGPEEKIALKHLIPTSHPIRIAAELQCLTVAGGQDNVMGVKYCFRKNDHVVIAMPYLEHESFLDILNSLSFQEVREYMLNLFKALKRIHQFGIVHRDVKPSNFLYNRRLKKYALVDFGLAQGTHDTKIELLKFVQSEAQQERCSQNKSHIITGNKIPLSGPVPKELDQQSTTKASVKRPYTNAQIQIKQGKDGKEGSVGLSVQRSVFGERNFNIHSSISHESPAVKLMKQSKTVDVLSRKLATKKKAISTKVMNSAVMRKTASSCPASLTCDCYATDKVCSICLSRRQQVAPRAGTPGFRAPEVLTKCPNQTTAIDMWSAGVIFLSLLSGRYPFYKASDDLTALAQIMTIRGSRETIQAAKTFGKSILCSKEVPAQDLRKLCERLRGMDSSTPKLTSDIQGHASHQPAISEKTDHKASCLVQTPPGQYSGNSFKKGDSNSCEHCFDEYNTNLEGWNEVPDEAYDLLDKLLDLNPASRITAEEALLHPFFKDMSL
Chain of Full length human CDC7 protein co-expressed with DBF4 (Q9UBU7 whole entry partner): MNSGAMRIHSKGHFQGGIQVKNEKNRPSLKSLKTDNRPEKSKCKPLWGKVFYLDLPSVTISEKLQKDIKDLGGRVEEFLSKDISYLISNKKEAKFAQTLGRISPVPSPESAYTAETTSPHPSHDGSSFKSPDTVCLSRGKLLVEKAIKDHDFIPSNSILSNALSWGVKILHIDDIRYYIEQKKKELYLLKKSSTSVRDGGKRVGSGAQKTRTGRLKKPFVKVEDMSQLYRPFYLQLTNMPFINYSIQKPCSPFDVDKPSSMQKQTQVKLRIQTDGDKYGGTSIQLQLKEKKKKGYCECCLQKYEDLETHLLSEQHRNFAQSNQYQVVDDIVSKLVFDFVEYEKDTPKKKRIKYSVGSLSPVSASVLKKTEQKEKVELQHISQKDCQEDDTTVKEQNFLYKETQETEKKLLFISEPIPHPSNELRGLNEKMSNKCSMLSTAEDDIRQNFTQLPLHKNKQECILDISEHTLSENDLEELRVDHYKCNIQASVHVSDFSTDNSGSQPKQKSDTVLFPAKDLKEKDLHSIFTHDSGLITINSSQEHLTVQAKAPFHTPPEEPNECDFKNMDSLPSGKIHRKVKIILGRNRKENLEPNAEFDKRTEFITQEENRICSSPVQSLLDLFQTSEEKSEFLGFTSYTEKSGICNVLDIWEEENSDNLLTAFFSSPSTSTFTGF

The assay addresses Full length human CDC7 protein co-expressed with DBF4 (Homo sapiens (Human), UniProt O00311). Kind of assay: CDC7 kinase biochemical assay (ADP-Glo, PDKtide substrate). Particulars: 0.1 nM CDC7/DBF4, 1 uM ATP, 10 uM PDKtide, 4 h. As for the experimental part: CDC7 Kinase Biochemical Assay Protocol:
Full length human CDC7 protein co-expressed with DBF4 was purchased from SignalChem (China). CDC7 kinase activity was determined with PDKtide (SignalChem) as a substrate and by measuring ADP production using the ADP-Glo™ Kinase Assay kit (Promega) following the manufacturers instructions. The kinase reaction was performed using the following conditions: Buffer: 40 mM Tris pH 7.5, 20 mM MgCl2, 0.1 mg/ml BSA and 50 uM DTT. Final reaction mix contained 0.1 nM CDC7/DBF4, 1 uM ATP and 10 uM PDKtide. The kinase reaction time was 4 h. The ADP-Glo signal was measured using an EnVision plate reader (PerkinELmer).
Percent inhibition of CDC7 kinase activity was calculated based on the following formula:
[formula] • Ssample: the signal of compounds • SHigh Ctrl: the signal of high control (DMSO) • SLow Ctrl: the signal of low control (positive control CDC7 inhibitor)
In general terms: ADP-Glo first removes unused ATP, then detects ADP through luciferase.
`CC[C@](C)(O)c1[nH]c(=O)c2sc(-c3ccncc3)c3c2c1CCCO3` (single isomer, unassigned) [Example 71]: the IC50 (usually the concentration needed to halve the response being measured) is less than 1 nM.

In turn, `CC[C@@](C)(O)c1[nH]c(=O)c2sc(-c3ccncc3)c3c2c1CCCO3` (single isomer, unassigned) [Example 72] showed an IC50 of less than 1 nM.

Take `CC[C@](C)(O)c1[nH]c(=O)c2sc(-c3c[nH]nc3C)c3c2c1CCCO3` (single isomer, unassigned) [Example 73]: the IC50 was not below 10 nM.

As for `CC[C@@](C)(O)c1[nH]c(=O)c2sc(-c3c[nH]nc3C)c3c2c1CCCO3` (single isomer, unassigned) [Example 74], the IC50 is not below 10 nM.

In turn, `C[C@H]1Cc2c(CN3CC(O)C3)[nH]c(=O)c3sc(-c4cn[nH]c4)c(c23)O1` (single isomer, unassigned) [Example 79] registered an IC50 of less than 1 nM.

Regarding `C[C@@H]1Cc2c(CN3CC(O)C3)[nH]c(=O)c3sc(-c4cn[nH]c4)c(c23)O1` (single isomer, unassigned) [Example 80], the IC50 was less than 1 nM.

As to `C[C@@H]1Cc2c(CN3CC[C@H]3C)[nH]c(=O)c3sc(-c4cn[nH]c4)c(c23)O1` (single isomer, unassigned) [Example 81], the IC50 was less than 1 nM.

The compound `C[C@@H]1Cc2c(CN3CC[C@@H]3C)[nH]c(=O)c3sc(-c4cn[nH]c4)c(c23)O1` (single isomer, unassigned) [Example 82] returned an IC50 of less than 1 nM.

`C[C@H]1Cc2c(CN3CC[C@@H]3C)[nH]c(=O)c3sc(-c4cn[nH]c4)c(c23)O1` (single isomer, unassigned) [Example 83] showed an IC50 of less than 1 nM.

`C[C@@H]1CCN1Cc1[nH]c(=O)c2sc(-c3cn[nH]c3)c3c2c1C[C@H](C)O3` (single isomer, unassigned) [Example 84]: the IC50 is less than 1 nM.

As for `CC1Cc2c(CN3CC(F)C3)[nH]c(=O)c3sc(-c4cn[nH]c4)c(c23)O1` (stereo in doubt) [Example 67, (R)-6-((3-fluoroazetidin-1-yl)methyl)-4-methyl-2-(1H-pyrazol-4-yl)-5,7-dihydro-3-oxa-1-thia-7-azaacenaphthylen-8(4H)-one], the IC50 is less than 1 nM.

For the compound `CC1Cc2c(CN3CC(F)C3)[nH]c(=O)c3sc(-c4cn[nH]c4)c(c23)O1` (stereo in doubt) [Example 68, (S)-6-((3-fluoroazetidin-1-yl)methyl)-4-methyl-2-(1H-pyrazol-4-yl)-5,7-dihydro-3-oxa-1-thia-7-azaacenaphthylen-8(4H)-one], the half-inhibitory concentration (IC50) is less than 1 nM.

The compound `CC1Cc2c(CN3CC[C@H](F)C3)[nH]c(=O)c3sc(-c4cn[nH]c4)c(c23)O1` (stereo in doubt) [Example 69, (S)-6-(((S)-3-fluoropyrrolidin-1-yl)methyl)-4-methyl-2-(1H-pyrazol-4-yl)-5,7-dihydro-3-oxa-1-thia-7-azaacenaphthylen-8(4H)-one] came in with an IC50 of less than 1 nM.

With `CC1Cc2c(CN3CC[C@H](F)C3)[nH]c(=O)c3sc(-c4cn[nH]c4)c(c23)O1` (stereo in doubt) [Example 70, (R)-6-(((S)-3-fluoropyrrolidin-1-yl)methyl)-4-methyl-2-(1H-pyrazol-4-yl)-5,7-dihydro-3-oxa-1-thia-7-azaacenaphthylen-8(4H)-one], the IC50 was less than 1 nM.

`Cc1[nH]c(=O)c2sc(-c3ccncc3)c3c2c1CCO3` [Example 2, 6-methyl-2-(pyridin-4-yl)-5,7-dihydro-3-oxa-1-thia-7-azaacenaphthylen-8(4H)-one] had a 50% inhibitory concentration (IC50) of less than 1 nM.

Consider `Cc1[nH]c(=O)c2sc(-c3cn[nH]c3)c3c2c1CCO3` [Example 3, 6-methyl-2-(1H-pyrazol-4-yl)-5,7-dihydro-3-oxa-1-thia-7-azaacenaphthylen-8(4H)-one], for which the IC50 was 1 to 10 nM.

`Cc1n[nH]cc1-c1sc2c(=O)[nH]c(C)c3c2c1OCC3` [Example 4, 6-methyl-2-(3-methyl-1H-pyrazol-4-yl)-5,7-dihydro-3-oxa-1-thia-7-azaacenaphthylen-8(4H)-one] came in with a half-inhibitory concentration (IC50) of less than 1 nM.

The compound `Cc1n[nH]cc1-c1sc2c(=O)[nH]c(C)c3c2c1OCCC3` [Example 6, 5-methyl-1-(3-methyl-1H-pyrazol-4-yl)-4,6,7,8-tetrahydro-3H-9-oxa-2-thia-4-azabenzo[cd]azulen-3-one] gave an IC50 of 1 to 10 nM.

In turn, `Cc1[nH]c(=O)c2sc(-c3cn[nH]c3)c3c2c1CC(C)O3` (stereo not drawn) [Example 9, 4,6-dimethyl-2-(1H-pyrazol-4-yl)-5,7-dihydro-3-oxa-1-thia-7-azaacenaphthylen-8(4H)-one] registered an IC50 of less than 1 nM.

`O=c1[nH]c(CN2CC[C@H](O)C2)c2c3c(c(-c4ccncc4)sc13)OCCC2` [Example 10, (S)-5-((3-hydroxypyrrolidin-1-yl)methyl)-1-(pyridin-4-yl)-4,6,7,8-tetrahydro-3H-9-oxa-2-thia-4-azabenzo[cd]azulen-3-one] displayed an IC50 of 1 to 10 nM.

`O=c1[nH]c(CN2CC[C@H](O)C2)c2c3c(c(-c4cn[nH]c4)sc13)OCCC2` [Example 11, (S)-5-((3-hydroxypyrrolidin-1-yl)methyl)-1-(1H-pyrazol-4-yl)-4,6,7,8-tetrahydro-3H-9-oxa-2-thia-4-azabenzo[cd]azulen-3-one]: the IC50 is less than 1 nM.

`O=c1[nH]c(CN2CCC2)c2c3c(c(-c4ccncc4)sc13)OCCC2` [Example 12, 5-(azetidin-1-ylmethyl)-1-(pyridin-4-yl)-4,6,7,8-tetrahydro-3H-9-oxa-2-thia-4-azabenzo[cd]azulen-3-one] registered an IC50 of less than 1 nM.

Regarding `CC(C)(C)OC(=O)NCc1[nH]c(=O)c2sc(-c3ccncc3)c3c2c1CCCO3` [Example 14, tert-butyl ((3-oxo-1-(pyridin-4-yl)-4,6,7,8-tetrahydro-3H-9-oxa-2-thia-4-azabenzo[cd]azulen-5-yl)methyl)carbamate], the IC50 was in the range of 1 to 10 nM.

With `NCc1[nH]c(=O)c2sc(-c3ccncc3)c3c2c1CCCO3` [Example 15, 5-(aminomethyl)-1-(pyridin-4-yl)-4,6,7,8-tetrahydro-3H-9-oxa-2-thia-4-azabenzo[cd]azulen-3-one;hydrochloride], the IC50 fell in the range of 1 to 10 nM.

For `COc1ccc(CNCc2[nH]c(=O)c3sc(-c4ccncc4)c4c3c2CCCO4)cc1` [Example 16, 5-(((4-methoxybenzyl)amino)methyl)-1-(pyridin-4-yl)-4,6,7,8-tetrahydro-3H-9-oxa-2-thia-4-azabenzo[cd]azulen-3-one], the half-maximal inhibitory concentration (IC50) was not below 10 nM.

Turning to `NCc1[nH]c(=O)c2sc(-c3cn[nH]c3)c3c2c1CCCO3` [Example 17, 7-(aminomethyl)-2-(1H-pyrazol-4-yl)-12-oxa-3-thia-6-azatricyclo[6.4.1.04,13]trideca-1,4(13),7-trien-5-one], the IC50 is 1 to 10 nM.

Consider `O=c1[nH]c(Cn2cccn2)c2c3c(c(-c4cn[nH]c4)sc13)OCCC2` [Example 18, 2-(1H-pyrazol-4-yl)-7-(pyrazol-1-ylmethyl)-12-oxa-3-thia-6-azatricyclo[6.4.1.04,13]trideca-1,4(13),7-trien-5-one], for which the IC50 is less than 1 nM.

For the compound `O=c1[nH]c(Cn2cccn2)c2c3c(c(-c4ccncn4)sc13)OCCC2` [Example 19, 7-(pyrazol-1-ylmethyl)-2-pyrimidin-4-yl-12-oxa-3-thia-6-azatricyclo[6.4.1.0^4,13]trideca-1,4(13),7-trien-5-one], the IC50 is less than 1 nM.

`Cc1n[nH]cc1-c1sc2c(=O)[nH]c(Cn3cccn3)c3c2c1OCCC3` [Example 20, 2-(3-methyl-1H-pyrazol-4-yl)-7-(pyrazol-1-ylmethyl)-12-oxa-3-thia-6-azatricyclo[6.4.1.0^4,13]trideca-1,4(13),7-trien-5-one] gave an IC50 of less than 1 nM.

In the case of `O=c1[nH]c(Cn2cccn2)c2c3c(c(-c4ccncc4)sc13)OCCC2` [Example 21, 7-(pyrazol-1-ylmethyl)-2-(4-pyridyl)-12-oxa-3-thia-6-azatricyclo[6.4.1.0^4,13]trideca-1,4(13),7-trien-5-one], the IC50 is less than 1 nM.

`O=c1[nH]c(Cn2ccnc2)c2c3c(c(-c4cn[nH]c4)sc13)OCCC2` [Example 22, 7-(imidazol-1-ylmethyl)-2-(1H-pyrazol-4-yl)-12-oxa-3-thia-6-azatricyclo[6.4.1.0^4,13]trideca-1,4(13),7-trien-5-one]: the concentration for half-maximal inhibition (IC50) is less than 1 nM.

In turn, `O=c1[nH]c(CN2CCCCC2)c2c3c(c(-c4cn[nH]c4)sc13)OCCC2` [Example 23, 5-(piperidin-1-ylmethyl)-1-(1H-pyrazol-4-yl)-4,6,7,8-tetrahydro-3H-9-oxa-2-thia-4-azabenzo[cd]azulen-3-one] returned a concentration for half-maximal inhibition (IC50) of less than 1 nM.

In the case of `O=c1[nH]c(CN2CCC(F)(F)C2)c2c3c(c(-c4cn[nH]c4)sc13)OCCC2` [Example 25, 7-[(3,3-difluoropyrrolidin-1-yl)methyl]-2-(1H-pyrazol-4-yl)-12-oxa-13-thia-6-azatricyclo[6.4.1.0^4,13]trideca-1,4(13),7-trien-5-one], the half-inhibitory concentration (IC50) is less than 1 nM.

As for `CC(C)(O)c1[nH]c(=O)c2sc(-c3ccncc3)c3c2c1CCCO3` [Example 29, 5-(2-hydroxypropan-2-yl)-1-(pyridin-4-yl)-4,6,7,8-tetrahydro-3H-9-oxa-2-thia-4-azabenzo[cd]azulen-3-one], the IC50 was less than 1 nM.

As for `CC(NC1CCC1)c1[nH]c(=O)c2sc(-c3cn[nH]c3)c3c2c1CCCO3` (stereo not drawn) [Example 34], the IC50 is less than 1 nM.

`O=C1CCCN1Cc1[nH]c(=O)c2sc(-c3cn[nH]c3)c3c2c1CCCO3` [Example 41, 5-((2-oxopyrrolidin-1-yl)methyl)-1-(1H-pyrazol-4-yl)-4,6,7,8-tetrahydro-3H-9-oxa-2-thia-4-azabenzo[cd]azulen-3-one] displayed an IC50 of less than 1 nM.

These data come from US20230365584A1, “HETEROCYCLIC PERICONDENSED CDC7 KINASE INHIBITORS FOR THE TREATMENT OF CANCER” (SCHRÖDINGER, INC., priority 2020, published 2023).
